In ChEMBL document CHEMBL1157539, “Thousands of chemical starting points for antimalarial lead identification” (Nature, 2010):

system: Plasmodium falciparum; test: GSK_TCMDC: Inhibition of Plasmodium falciparum 3D7 in whole erythrocytes, using parasite LDH activity as an index of growth.; assay type: functional, organism-based; settings: Plasmodium falciparum, 3D7

First: Cc1cc(=O)c2cc(Oc3ccc(OC(F)(F)F)cc3)ccc2[nH]1
Second: COc1ccc(Oc2ccc(-c3c(C)[nH]c(C)c(Cl)c3=O)cc2)cc1
The XC50 of the first is 7.3-fold higher: 990 nM for the first, 135 nM for the second.

First: COc1ccccc1N=C1SC(=Cc2cn(CC(=O)N3CCCc4ccccc43)c3ccccc23)C(=O)N1C1CCCCC1
Second: COc1ccccc1-c1ccc(CNC(=O)C(CN2CCN(C)CC2)c2ccccc2)cc1 (configuration not stated)
The XC50 of the first is 44-fold lower: 28.9 nM for the first, 1260 nM for the second.

Going from `COc1ccc(Cl)cc1N1CCN(CCCNC(=O)c2ccc(-c3nc4cc(Cl)c(C)cc4[nH]3)s2)CC1` to `Clc1ccc2c(N3CCN(CCN4CCN(c5ccnc6cc(Cl)ccc56)CC4)CC3)ccnc2c1`, the XC50 falls from 776 nM to 128 nM (6.1-fold).

`COC(=O)c1c(C#N)c(OC)cc(O)c1CSC[C@H](Nc1nc(-c2ccc([N+](=O)[O-])cc2)cs1)C(=O)NCCN1CCCCC1` and `COc1ccc(-c2ccc(CNCc3ccc(F)cc3)cc2)cc1S(=O)(=O)NCCN1CCCC1` are within 1.5-fold of each other in XC50: 1060 nM for the first, 731 nM for the second.

`CCOC(=O)c1c(C)noc1Nc1ccc(OC)cc1` and `COC(=O)Cn1c2ccccc2c2c(N)c(C(=O)OC)c(C)nc21` are within 1.5-fold of each other in XC50: 672 nM for the first, 938 nM for the second.

`CC(C)n1ncc2c(C(=O)Nc3ccc(C#N)c(Cl)c3)cc(C3CC3)nc21` and `COc1ccc(C(=O)Nc2cc(Cl)c3c(c2)C2CCCN2CC3)cc1C(F)(F)F` (configuration not stated) are within 1.5-fold of each other in XC50: 962 nM for the first, 753 nM for the second.

Going from `Cc1cccc(C(=O)Nc2ccnc(N(C)CCCN(C)Cc3cccc(C#N)c3)c2)c1` to `N#Cc1cccc(NC(=O)Nc2cccc(OC3CCN(Cc4ccccc4)CC3)c2)c1`, the XC50 falls from 1320 nM to 841 nM (1.6-fold).

Compared with `Cc1cccc2nc(-c3cccc(-c4ccc(NC(=O)c5cccc(C(N)=O)c5)cc4)c3)[nH]c12`, `Cc1cccc2nc(-c3cccc(-c4ccc(NC(=O)Nc5ccc6c(c5)OCO6)cc4)c3)[nH]c12` is 2.8-fold lower in XC50: 410 nM for the first, 145 nM for the second.

`Cc1cccc2nc(-c3ccc(-c4ccc(CN5CC(C)OC(C)C5)cc4)cc3)[nH]c12` (configuration not stated) and `Cc1cccc2nc(-c3ccc(-c4cccc(CNCCNC(=O)c5ccnn5C)c4)cc3)[nH]c12` are within 1.5-fold of each other in XC50: 523 nM for the first, 396 nM for the second.

`CN(Cc1ccccc1)C(=O)CCNS(=O)(=O)c1cc(Br)cnc1N` and `CCCNCc1ccc(-c2ccc(CN(CCOC)C(=O)CCCOCc3ccccc3)cc2)nc1` are within 1.5-fold of each other in XC50: 1130 nM for the first, 1160 nM for the second.

Compared with `Cc1sc2nc(CN3CCCC3)nc(-n3c(NCCO)nc4ccccc43)c2c1C`, `CCCc1ccccc1Nc1nc(C)cc(N(CC)CCCN2CCCCC2)n1` is 2-fold lower in XC50: 1240 nM for the first, 622 nM for the second.

Going from `COc1ccc(CNCCCCCCCNCc2ccc(Cl)c(Cl)c2)cc1Cl` to `O=C(Nc1ccc(CCNCCCc2ccccc2)cc1)Nc1ccc(Cl)c(Cl)c1`, the XC50 falls from 1220 nM to 273 nM (4.5-fold).

`CCCC(=O)c1cnc2cc(O)ccc2c1Nc1ccccc1C` and `Oc1ccc(Cl)cc1Nc1nc(C(F)(F)F)nc2ccccc12` are within 1.5-fold of each other in XC50: 651 nM for the first, 938 nM for the second.

`CC(C)CCN1CCCN(Cc2ccc(C(=O)Nc3ccc(Cl)cc3)cc2)CC1` and `CCCCCCN1CCN(Cc2cccc(NC(=O)c3cc4ccccc4o3)c2)CC1` are within 1.5-fold of each other in XC50: 796 nM for the first, 909 nM for the second.

`COc1ccc(Cn2c(N3CCN(S(=O)(=O)c4ccc(OC)cc4)CC3)nc3c2c(=O)n(CC2CC2)c(=O)n3CC2CC2)cc1` and `CN(C)CCCOc1ccc(CN2CCC(c3c[nH]c4ccc(NCC5CCCCC5)cc34)CC2)cc1` are within 1.5-fold of each other in XC50: 892 nM for the first, 678 nM for the second.

`O=C(NCCCN1CCOCC1)c1ccc(-c2cccc(NC(=O)c3ccc(Cl)c(Cl)c3)c2)cc1` and `N#Cc1ccc(C(=O)NC2CCN(CCCCCNC(=O)/C=C/c3ccc(Cl)c(Cl)c3)CC2)cc1` are within 1.5-fold of each other in XC50: 683 nM for the first, 836 nM for the second.

Compared with `CCCCCCCCn1c2c(c(=N)c3c1CCC3)CCCC2`, `Cc1[nH]c2ccccc2c1C1=CCN(CCCCCNC(=O)/C=C/c2ccc(Cl)c(Cl)c2)CC1` is 2.5-fold higher in XC50: 109 nM for the first, 272 nM for the second.

First: CN1CCN(c2ccnc3ccc(NC(=O)Nc4ccc(-c5ccncc5)c(C(F)(F)F)c4)cc23)CC1
Second: CN1CCN(Cc2ccc(-c3ccc4c(Nc5ccc(F)cc5Cl)ccnc4c3)o2)CC1
The XC50 of the first is 5.8-fold higher: 823 nM for the first, 143 nM for the second.

Going from `CCCCOc1cc2ncc(C(=O)OCC)c(O)c2cc1OCCCC` to `CCCOc1ccc2ccccc2c1CNCCCCCCNCc1c(OCCC)ccc2ccccc12`, the XC50 rises from 201 nM to 791 nM (3.9-fold).

`Cc1cc(O)c(-c2ccc(S(=O)(=O)c3ccc(Cl)cc3)cc2)c(C)n1` and `O=C(Nc1ccc(-c2nc3ccccc3[nH]2)cc1)c1ccc(Cl)c([N+](=O)[O-])c1` are within 1.5-fold of each other in XC50: 877 nM for the first, 802 nM for the second.

First: Oc1ccc(Br)cc1-c1nc2ccc(Cl)cc2nc1-c1cc(Br)ccc1O
Second: Cc1cccc2nc(-c3cccc(-c4ccc(C(=O)NCc5nccn5C)cc4)c3)[nH]c12
The XC50 of the first is 1.7-fold lower: 789 nM for the first, 1320 nM for the second.

Compared with `CCCCOc1ccc(/C=C/c2ccc(-c3c(C)[nH]c(C)c(Cl)c3=O)s2)cc1`, `COc1ccc2sc(CNCCCNc3cc(=O)c4ccccc4[nH]3)c(Cl)c2c1` is 2.7-fold higher in XC50: 395 nM for the first, 1070 nM for the second.

Going from `COc1ccc(CC(C)NCC(O)c2cccc(C(F)(F)F)c2)cc1F` (configuration not stated) to `CC(Cc1ccc(OC2CCCCC2)cc1)NCC(O)c1cccc(Cl)c1` (configuration not stated), the XC50 falls from 827 nM to 138 nM (6-fold).

`CC(=O)Nc1ccc(S(=O)(=O)Nc2c(C)cc(Cc3cnc(N)nc3N)cc2C)cc1` and `CC1CCN(CC[C@H]2CCCN2S(=O)(=O)c2cccc(NC(=O)c3cc4ccccc4s3)c2)CC1` are within 1.5-fold of each other in XC50: 1000 nM for the first, 830 nM for the second.

`COc1ccc(CCN(Cc2cccs2)C(=O)c2cc3sccc3n2C)cc1OC` and `COc1ccc(CCNCC(O)COc2nccc3c(S(=O)(=O)N4CCCNCC4)cccc23)cc1OC` (configuration not stated) are within 1.5-fold of each other in XC50: 349 nM for the first, 269 nM for the second.

`CCC(CC)N1C(=O)C(c2ccccc2)(c2ccccc2)N=C1N` and `CCNc1cc(C(=O)N[C@@H](Cc2ccccc2)[C@H](O)CN[C@@H]2CCc3ccccc32)cc(N2CCCC2=O)c1` are within 1.5-fold of each other in XC50: 805 nM for the first, 1020 nM for the second.

`COc1ccccc1CCNc1nc(C)cc(N[C@@H](CC(C)C)C(=O)NCCc2ccccc2)n1` and `COc1ccc(CCNC(=O)c2ccccc2O)cc1-c1ccc(C(C)(C)C)cc1` are within 1.5-fold of each other in XC50: 718 nM for the first, 563 nM for the second.

`CN(C)CCOc1cccc(NC(=O)Nc2ccc(-c3ccccc3)cc2)c1` and `CC(C)CNCc1cccc(-c2ccc(CN(C(=O)NC3CCCCC3)C3CCN(Cc4ccccc4)CC3)cc2)c1` are within 1.5-fold of each other in XC50: 878 nM for the first, 763 nM for the second.

First: C#CCCOc1ccc2ccccc2c1CNCCCCCCNCc1c(OCCC#C)ccc2ccccc12
Second: O=c1c2ccccc2nc(/C=C/c2ccc([N+](=O)[O-])cc2)n1-c1ccccn1
The XC50 of the first is 2.1-fold higher: 811 nM for the first, 382 nM for the second.

`CCCC[C@@H](C(=O)NCCc1ccc(Cl)cc1)N1C(=O)CCC1C(=O)Nc1ccc(Cl)c(Cl)c1` (some centres not stated) and `CCOC(=O)c1ccc(NC(=O)N[C@@H](Cc2ccccc2)C(=O)NC2CCN(Cc3ccc(O)cc3)C2)cc1` (some centres not stated) are within 1.5-fold of each other in XC50: 873 nM for the first, 628 nM for the second.

Compared with `C=CCn1c(SCc2c(C)noc2C)nc2scc(-c3cccs3)c2c1=O`, `CCc1cc2c(Sc3nnc(N)s3)ncnc2s1` is 1.7-fold lower in XC50: 1100 nM for the first, 659 nM for the second.

Compared with `COc1cc2nc(N3CCC(CNC(=O)/C=C/c4ccccc4F)CC3)nc(N)c2cc1OC`, `O=C(/C=C/c1ccc(Cl)c(Cl)c1)NC1CCN(Cc2cccc(O)c2)CC1` is 1.5-fold higher in XC50: 581 nM for the first, 880 nM for the second.

First: CCC(CSC1CCCCC1)N(C)CCN(C)C(CC)CSC1CCCCC1 (configuration not stated)
Second: CC(c1cccc(S(=O)(=O)NCc2ccc(Cl)cc2Cl)c1)N1CCC(N2CCCCC2)CC1 (configuration not stated)
The XC50 of the first is 2.4-fold lower: 314 nM for the first, 747 nM for the second.

`O=C(/C=C/c1ccc(Cl)c(Cl)c1)N1CCC(NCc2c[nH]c3ccccc23)CC1` and `O=C1OC2(CN1CC1CCN(Cc3ccc(O)c(Cl)c3)CC1)c1ccccc1-c1ccccc12` are within 1.5-fold of each other in XC50: 1070 nM for the first, 756 nM for the second.

Going from `CCCc1cc(OC)c(CC2c3cccc(O)c3CCN2C)cc1OC` (configuration not stated) to `COc1ccc(-c2ccccc2CNc2nc(NCCc3ccc(O)cc3)nc(N3CCNCC3)n2)cc1`, the XC50 rises from 305 nM to 1080 nM (3.5-fold).

`Cc1cc2c(cc1Cl)N(C(=O)Nc1cc(F)cc(-c3cncnc3)c1)CC2` and `CN=C(S)NN=C(C)c1ccccn1` are within 1.5-fold of each other in XC50: 377 nM for the first, 272 nM for the second.
